Results reported in patent US7998988B2, “Biphenyl compounds useful in the treatment or prevention of cardiovascular disorders” (Bayer Schering Pharma Aktiengellschaft, priority 2005, dated 2011).

Experiments:
[1] = target: T1, heme-free recombinant soluble guanylate cyclase (sGC) (Rattus norvegicus, UniProt P20595); assay: Stimulation of recombinant soluble guanylate cyclase (sGC) in vitro, heme-free; format: biochemical; settings: heme-free sGC (Tween 20)
T1 construct: made in house
T1 sequence (P20595 1-619): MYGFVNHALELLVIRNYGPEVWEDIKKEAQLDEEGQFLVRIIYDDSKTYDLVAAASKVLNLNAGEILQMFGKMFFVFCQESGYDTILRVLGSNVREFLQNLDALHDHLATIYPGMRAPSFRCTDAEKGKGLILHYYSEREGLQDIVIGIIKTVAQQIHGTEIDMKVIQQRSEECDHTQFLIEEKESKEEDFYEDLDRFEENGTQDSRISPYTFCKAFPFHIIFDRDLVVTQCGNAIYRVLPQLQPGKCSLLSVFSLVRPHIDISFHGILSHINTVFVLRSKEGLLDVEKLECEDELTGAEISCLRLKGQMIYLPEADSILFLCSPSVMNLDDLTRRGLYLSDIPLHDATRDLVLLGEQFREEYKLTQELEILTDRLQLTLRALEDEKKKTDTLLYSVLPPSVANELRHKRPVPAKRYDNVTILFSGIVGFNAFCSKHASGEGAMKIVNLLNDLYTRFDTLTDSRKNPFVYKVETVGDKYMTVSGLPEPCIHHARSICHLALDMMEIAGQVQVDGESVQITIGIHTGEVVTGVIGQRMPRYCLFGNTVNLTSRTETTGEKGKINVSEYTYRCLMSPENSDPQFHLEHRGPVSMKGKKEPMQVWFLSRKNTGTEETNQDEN
T1 sequence (P19686 1-690 partner): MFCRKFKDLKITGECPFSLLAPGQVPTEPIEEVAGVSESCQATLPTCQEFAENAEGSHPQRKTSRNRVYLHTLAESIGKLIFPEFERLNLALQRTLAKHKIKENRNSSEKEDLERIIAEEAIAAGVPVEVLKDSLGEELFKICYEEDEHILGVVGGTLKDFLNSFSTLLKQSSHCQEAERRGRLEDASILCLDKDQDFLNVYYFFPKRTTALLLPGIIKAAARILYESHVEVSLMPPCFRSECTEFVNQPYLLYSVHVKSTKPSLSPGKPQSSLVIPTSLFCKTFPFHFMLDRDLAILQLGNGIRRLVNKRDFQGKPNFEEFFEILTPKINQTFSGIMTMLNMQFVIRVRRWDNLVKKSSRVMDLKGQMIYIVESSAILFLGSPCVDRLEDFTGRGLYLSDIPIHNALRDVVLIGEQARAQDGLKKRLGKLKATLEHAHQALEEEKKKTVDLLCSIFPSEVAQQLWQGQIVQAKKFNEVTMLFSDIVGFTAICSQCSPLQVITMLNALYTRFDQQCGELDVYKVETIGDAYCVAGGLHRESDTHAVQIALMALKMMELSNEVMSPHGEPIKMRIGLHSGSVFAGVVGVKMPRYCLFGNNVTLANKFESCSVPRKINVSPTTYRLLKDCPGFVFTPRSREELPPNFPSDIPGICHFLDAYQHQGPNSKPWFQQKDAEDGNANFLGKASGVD
Protocol: Investigations on the stimulation of recombinant soluble guanylate cyclase (sGC) by the compounds according to the invention with and without sodium nitroprusside, and with and without the heme-dependent sGC inhibitor 1H-1,2,4-oxadiazole-(4,3a)-quinoxalin-1-one (ODQ) are carried out by the method described in detail in the following reference: M. Hoenicka, E. M. Becker, H. Apeler, T. Sirichoke, H. Schroeder, R. Gerzer and J.-P. Stasch, “Purified soluble guanylyl cyclase expressed in a baculovirus/Sf9 system: Stimulation by YC-1, nitric oxide, and […]”, J. Mol. Med. 77 (1999), 14-23. The heme-free guanylate cyclase is obtained by adding Tween 20 to the sample buffer (0.5% in the final concentration).
(§1) The activation of sGC by a test substance is reported as n-fold stimulation of the basal activity.

[2] = target: T2, heme-containing recombinant soluble guanylate cyclase (sGC) (Rattus norvegicus, UniProt P20595); assay: Stimulation of recombinant soluble guanylate cyclase (sGC) in vitro, heme-containing; format: biochemical
T2 construct: made in house
T2 sequence (P20595 1-619): T1 sequence (P20595 1-619)
T2 sequence (P19686 1-690 partner): T1 sequence (P19686 1-690 partner)
Description: Hoenicka, E. M. Becker, H. Apeler, T. Sirichoke, H. Schroeder, R. Gerzer and J.-P. Stasch, “Purified soluble guanylyl cyclase expressed in a baculovirus/Sf9 system: Stimulation by YC-1, nitric oxide, and carbon oxide”, J. Mol. Med. 77 (1999), 14-23. The heme-free guanylate cyclase is obtained by adding Tween 20 to the sample buffer (0.5% in the final concentration).
as §1

saphenous artery rings = assay: Vasorelaxant effect in vitro (phenylephrine-contracted artery rings); format: cell-based; settings: rabbit saphenous artery rings, contraction induced by phenylephrine
Protocol: Rabbits are anesthetized and sacrificed by intravenous injection of thiopental sodium (about 50 mg/kg) and exsanguinated. The saphenous artery is removed and divided into rings 3 mm wide. The rings are mounted singly on in each case a pair of triangular hooks open at the end and made of 0.3 mm-thick special wire (Remanium®). Each ring is placed under an initial tension in 5 ml organ baths with Krebs-Henseleit solution which is at 37° C., is gassed with 95% 02/5% CO2 and has the following composition: NaCl 119 mM; KCl 4.8 mM; CaCl2×2H2O 1 mM; MgSO4×7 H2O 1.4 mM; KH2PO4 1.2 mM; NaHCO3 25 mM; glucose 10 mM; bovine serum albumin 0.001%. The force of contraction is detected with Statham UC2 cells, amplified and digitized via A/D converters (DAS-1802 HC, Keithley Instruments, Munich) and recorded in parallel on chart recorders. Contractions are induced by addition of phenylephrine.
After several (generally 4) control cycles, the substance to be investigated is added in each further run in increasing dosage, and the height of the contraction achieved under the influence of the test substance is compared with the height of the contraction reached in the last preceding run. The concentration necessary to reduce the contraction reached in the preceding control by 50% is calculated from this (IC50). The standard application volume is 5 μl. The proportion of DMSO in the bath solution corresponds to 0.1%.

O=C(O)c1ccc(CCC(/C=C/c2ccccc2OCc2ccc(-c3ccc(C(F)(F)F)cc3)cc2)Cc2ccc(-c3noc(=O)[nH]3)cc2)cc1 (single isomer, unassigned) [Example 55, E-4-{3-[4-(5-Oxo-4,5-dihydro-[1,2,4]oxadiazol-3-yl)benzyl]-5-[2-(4′-trifluoromethylbiphenyl-4-ylmethoxy)phenyl]pent-4-enyl}benzoic acid]
Stimulation (n-fold) of heme-free sGC, Basal ([1]; 0.001 μM test substance): 3.7 n-fold
Stimulation (n-fold) of heme-free sGC, Basal ([1]; 0.01 μM test substance): 24.0 n-fold
Stimulation (n-fold) of heme-free sGC, Basal ([1]; 0.1 μM test substance): 98.1 n-fold
Stimulation (n-fold) of heme-free sGC, Basal ([1]; 1 μM test substance): 132.6 n-fold
Stimulation (n-fold) of heme-free sGC, Basal ([1]; 10 μM test substance): 137.9 n-fold
Stimulation (n-fold) of sGC, +0.01 μM DEA/NO ([2]; 0.001 μM test substance): 10.6 n-fold
Stimulation (n-fold) of sGC, +0.01 μM DEA/NO ([2]; 0.01 μM test substance): 13.0 n-fold
Stimulation (n-fold) of sGC, +0.01 μM DEA/NO ([2]; 0.1 μM test substance): 25.5 n-fold
Stimulation (n-fold) of sGC, +0.01 μM DEA/NO ([2]; 1 μM test substance): 35.4 n-fold
Stimulation (n-fold) of sGC, +0.01 μM DEA/NO ([2]; 10 μM test substance): 42.5 n-fold
Stimulation (n-fold) of sGC, +0.1 μM DEA/NO ([2]; 0.001 μM test substance): 50.3 n-fold
Stimulation (n-fold) of sGC, +0.1 μM DEA/NO ([2]; 0.01 μM test substance): 53.4 n-fold
Stimulation (n-fold) of sGC, +0.1 μM DEA/NO ([2]; 0.1 μM test substance): 66.5 n-fold
Stimulation (n-fold) of sGC, +0.1 μM DEA/NO ([2]; 1 μM test substance): 75.1 n-fold
Stimulation (n-fold) of sGC, +0.1 μM DEA/NO ([2]; 10 μM test substance): 81.5 n-fold
Stimulation (n-fold) of sGC, +10 μM ODQ ([2]; 0.01 μM test substance): 12.7 n-fold
Stimulation (n-fold) of sGC, +10 μM ODQ ([2]; 0.1 μM test substance): 66.3 n-fold
Stimulation (n-fold) of sGC, +10 μM ODQ ([2]; 1 μM test substance): 107.4 n-fold
Stimulation (n-fold) of sGC, +10 μM ODQ ([2]; 10 μM test substance): 105.5 n-fold
Stimulation (n-fold) of sGC, Basal ([2]; 0.001 μM test substance): 1.4 n-fold
Stimulation (n-fold) of sGC, Basal ([2]; 0.01 μM test substance): 3.1 n-fold
Stimulation (n-fold) of sGC, Basal ([2]; 0.1 μM test substance): 15.5 n-fold
Stimulation (n-fold) of sGC, Basal ([2]; 1 μM test substance): 25.4 n-fold
Stimulation (n-fold) of sGC, Basal ([2]; 10 μM test substance): 33.0 n-fold
Synergism with the NO donor DEA/NO on sGC stimulation ([2]; combination with DEA/NO): no synergistic effect
IC50 (saphenous artery rings): 0.146 µM
